Measured values: PubChem BioAssay (NCI)
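How tested: cells in 96-well plates exposed to compound for 48 hours at five concentrations. GI50: concentration for 50% inhibition of growth. TGI marks complete inhibition of growth.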

Key:
Assay in all cases: NCI-60 cell line screen, 48 h
[1] = test system: U251 CNS
[2] = test system: NCI-H23 lung
[3] = test system: HS 578T breast
[4] = test system: UO-31 renal
[5] = test system: BT-549 breast
[6] = test system: HCC-2998 colon
[7] = test system: SNB-19 CNS
[8] = test system: NCI-H460 lung
[9] = test system: NCI-H522 lung
[10] = test system: HOP-62 NSCLC

O=C1c2ccccc2-c2ccc(N(Cc3ccc(Br)cc3)Cc3ccc(Br)cc3)cc21
TGI [1]: > 100 µM | TGI [2]: > 100 µM | TGI [3]: > 100 µM | TGI [4]: > 100 µM | TGI [5]: > 100 µM | TGI [6]: > 100 µM | TGI [7]: > 100 µM | TGI [8]: > 100 µM | TGI [9]: > 100 µM | TGI [10]: > 100 µM

COc1ccc(C2C(Cl)C(=O)N2NC(=O)c2ccc(NC(C)=O)cc2)cc1OC (stereo not given)
TGI [1]: > 100 µM | TGI [2]: > 100 µM | TGI [4]: > 100 µM | TGI [6]: > 100 µM | TGI [7]: > 100 µM | TGI [8]: > 100 µM | TGI [9]: > 100 µM | TGI [10]: > 100 µM

CSc1nc(NC2OC(CO)C(O)C(O)C2O)c(N)c(=O)n1C (stereo not given)
TGI [1]: > 100 µM | TGI [2]: > 100 µM | TGI [4]: > 100 µM | TGI [6]: > 100 µM | TGI [7]: > 100 µM | TGI [8]: > 100 µM | TGI [9]: > 100 µM | TGI [10]: > 100 µM

O=C(Nc1ccc(-n2cc(-c3ccncc3)c(-c3ccc(O)c(Cl)c3)n2)cc1)c1ccc(Cl)c(Cl)c1
GI50 [1]: 0.693 µM | TGI [1]: > 32.5 µM | GI50 [2]: 2.18 µM | TGI [2]: > 32.5 µM | GI50 [3]: 0.791 µM | TGI [3]: > 32.5 µM | GI50 [4]: 1.8 µM | TGI [4]: > 32.5 µM | GI50 [6]: 2.03 µM | TGI [6]: > 32.5 µM | GI50 [7]: 2.67 µM | TGI [7]: > 32.5 µM | GI50 [8]: 1.58 µM | TGI [8]: > 32.5 µM | GI50 [9]: 0.801 µM | TGI [9]: > 32.5 µM | GI50 [10]: 2 µM | TGI [10]: > 32.5 µM

CCCCCCCCCCCCCCCc1ccc(C(=O)C[n+]2ccccc2)cc1
GI50 [2]: 0.502 µM | TGI [2]: 1.79 µM | GI50 [3]: 1.75 µM | TGI [3]: 4.25 µM | GI50 [5]: 2.88 µM | TGI [5]: 12.3 µM | GI50 [6]: 1.27 µM | TGI [6]: 2.55 µM | GI50 [8]: 0.546 µM | TGI [8]: 1.78 µM

CCN(CC)CCSc1nc2c([N+](=O)[O-])cccc2[nH]1
TGI [2]: > 100 µM | TGI [6]: > 100 µM | TGI [9]: > 100 µM

N=C(N)c1ccc(-c2ccc(-c3ccccc3)o2)cc1
GI50 [2]: 3.37 µM | TGI [2]: 14.8 µM | GI50 [3]: 2.58 µM | TGI [3]: 7.04 µM | GI50 [4]: 1.79 µM | TGI [4]: 3.53 µM | GI50 [5]: 13.1 µM | TGI [5]: 39.9 µM | GI50 [6]: 1.51 µM | TGI [6]: 3.15 µM | GI50 [7]: 2.54 µM | TGI [7]: 6.83 µM | GI50 [8]: 1.93 µM | TGI [8]: 3.65 µM | GI50 [10]: 1.98 µM | TGI [10]: 5.13 µM

Nc1cccc2cc(S(=O)(=O)Nc3ccc(C(=O)O)cc3)ccc12
TGI [1]: > 100 µM | TGI [2]: > 100 µM | TGI [3]: > 100 µM | TGI [4]: > 100 µM | TGI [5]: > 100 µM | TGI [6]: > 100 µM | TGI [7]: > 100 µM | TGI [8]: > 100 µM | TGI [9]: > 100 µM | TGI [10]: > 100 µM

O=C(c1no[n+]([O-])c1C(=O)c1csc2ccccc12)c1csc2ccccc12
TGI [1]: 22.7 µM | TGI [2]: 32 µM | TGI [3]: > 57.3 µM | TGI [4]: 1.02 µM | TGI [5]: 19.3 µM | TGI [6]: 18.4 µM | TGI [7]: 32.3 µM | TGI [8]: 28.3 µM | TGI [9]: 0.843 µM | TGI [10]: 25.4 µM

CNC1=C(C)C(=O)C2=C(C1=O)C(COC(N)=O)C1(OC)C3NC3CN21 (stereo not given)
TGI [1]: 15 µM | TGI [3]: 30.5 µM | TGI [4]: 7.4 µM | TGI [6]: 1.82 µM | TGI [8]: 0.251 µM | TGI [9]: 2.22 µM | TGI [10]: 2.38 µM

Cc1ccc(CCCC(=O)O)cc1C
TGI [1]: > 100 µM | TGI [2]: > 100 µM | TGI [4]: > 100 µM | TGI [5]: > 100 µM | TGI [7]: > 100 µM | TGI [8]: > 100 µM | TGI [9]: > 100 µM | TGI [10]: > 100 µM

CC(C)=CCC/C(C)=C/CC/C(C)=C/C(O)c1ccccc1 (stereo not given)
TGI [1]: 33.5 µM | TGI [2]: 55.8 µM | TGI [4]: 36.3 µM | TGI [7]: 35.3 µM | TGI [8]: 35.3 µM | TGI [9]: > 10 µM | TGI [10]: 34.3 µM
